Legend:
Format in all cases: biochemical
human 11β-HSD1 = biological target: T1, human 11β-HSD1 (Homo sapiens, UniProt P28845); experiment: Enzyme inhibitory activity, human 11β-HSD1 (lysate of stably expressing HEK293 cells, cortisol by competitive ELISA); conditions: Table 1; human 11β-HSD1, cell lysate, 37° C. for 1 hour; read-out: h HSD1 in vitro assay (IC50 uM)
T1 construct: The obtained PCR products of about 0.9 kbp, 1.2 kbp, and 0.9 kbp were subcloned into an expression vector pcDNA3.1+/Zeo; expressed in transfected cells
T1 sequence (P28845 whole entry): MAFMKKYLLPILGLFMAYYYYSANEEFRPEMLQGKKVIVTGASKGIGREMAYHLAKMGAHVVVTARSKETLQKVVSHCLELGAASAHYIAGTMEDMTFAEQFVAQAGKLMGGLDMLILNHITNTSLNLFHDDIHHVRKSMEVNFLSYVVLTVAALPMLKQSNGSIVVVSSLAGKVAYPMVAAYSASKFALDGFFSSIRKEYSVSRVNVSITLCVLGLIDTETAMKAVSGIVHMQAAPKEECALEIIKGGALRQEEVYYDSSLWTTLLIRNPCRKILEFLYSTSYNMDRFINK
In short: (§1)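 Sonicated lysates of stably transfected cells (diluted to 0.1–0.4 mg/mL before addition) reacted for 1 h at 37 °C in pH 7.4 Tris/sucrose/EGTA/EDTA/MgCl2 buffer with 100 nmol/L cortisone or cortisol and 400 μmol/L NADPH or NAD+, then were heat-stopped at 95 °C. Inhibition rate = 100 minus residual activity.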

human 11β-HSD2 = biological target: T2, human 11β-HSD2 (Homo sapiens, UniProt P80365); experiment: Enzyme inhibitory activity, human 11β-HSD2 (lysate of stably expressing HEK293 cells, cortisol by competitive ELISA); conditions: Table 1; human 11β-HSD2, cell lysate, 37° C. for 1 hour; read-out: h HSD2 in vitro assay (IC50 uM)
T2 construct: The obtained PCR products of about 0.9 kbp, 1.2 kbp, and 0.9 kbp were subcloned into an expression vector pcDNA3.1+/Zeo; expressed in transfected cells
T2 sequence (P80365 1-405): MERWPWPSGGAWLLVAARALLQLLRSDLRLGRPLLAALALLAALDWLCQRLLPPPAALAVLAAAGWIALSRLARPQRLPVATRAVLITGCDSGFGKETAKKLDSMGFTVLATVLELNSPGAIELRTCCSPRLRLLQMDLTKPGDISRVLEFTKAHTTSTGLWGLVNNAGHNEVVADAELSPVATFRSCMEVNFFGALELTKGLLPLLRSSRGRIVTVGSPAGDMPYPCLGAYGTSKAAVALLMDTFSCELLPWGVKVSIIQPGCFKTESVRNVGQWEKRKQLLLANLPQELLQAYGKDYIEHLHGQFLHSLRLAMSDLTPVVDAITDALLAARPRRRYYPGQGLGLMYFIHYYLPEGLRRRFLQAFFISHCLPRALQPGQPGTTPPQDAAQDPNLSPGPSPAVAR
Experimental: 1. Human 11β-HSD1-, Human 11β-HSD2- and Mouse 11β-HSD1-Gene Clonings and Establishment of Stably Expressing Cells
Human 11β-HSD1-, human 11β-HSD2-, and mouse 11β-HSD1-gene clonings were conducted using as a template a reverse transcription product of human-liver RNA, human-kidney RNA (CELL APPLICATIONS), and mouse-kidney RNA respectively, by means of PCR cloning with reference to nucleotide sequences of Genbank Accession Nos. NM_005525, NM_000196, and NM_008288. The obtained PCR products of about 0.9 kbp, 1.2 kbp, and 0.9 kbp were subcloned into an expression vector pcDNA3.1+/Zeo (Invitrogen).
Human 11β-HSD1- and human 11β-HSD2-expressing vectors were transfected into human kidney-derived cell line, HEK293 cells, using a transfection reagent, jet PEI (Funakoshi). Mouse 11β-HSD1 was transfected to Chinese hamster ovary-derived cell line, CHO-K1 cells. Selection was conducted with 200-400 μg/mL of zeocine (Invitrogen) to provide stably expressing-cell clones. The stably expressing cells were suspended in buffer solution A (20 mmol/L Tris-HCl, pH 7.4, 250 mmol/L sucrose, 1 mmol/L EGTA, 1 mmol/L EDTA, 1 mmol/L MgCl2), sonicated, and then stored at −80° C.
2. Assay of Enzyme Inhibitory Activity
An enzymatic reaction was conducted using a polystyrene 96-well plate. Each well was added with 1 μL of a test agent dissolved in DMSO and then diluted (0.003 to 3 mmol/L), and further added with 10 μL of cell lysate diluted to a concentration of 0.1 mg/mL to 0.4 mg/mL. Next, 90 μL of buffer solution A containing substrate (100 nmol/L cortisone or cortisol) and coenzyme (400 μmol/L NADPH or NAD+) was added and the mixture was incubated at 37° C. for 1 hour. The enzymatic reaction was stopped by treating at 95° C. for 3 minutes. Cortisol that was present in the reaction solution was determined by a competitive ELISA shown below.
Anti-rabbit IgG antibody (Chemi-con) diluted to 2 μg/mL with carbonate buffer solution (pH 9.6) was added in 100 μL each to a 96-well immuno plate (Nunc) and immobilized by an incubation at 4° C. overnight. 50 μL of enzymatic reaction solution was put onto the plates, and further, anti-cortisol antibody (Cosmo Bio) and HRP-labeled cortisol (Cosmo Bio), diluted with buffer solution B (25 mmol/L Tris-HCl pH 7.4, 137 mmol/L NaCl, 2.68 mmol/L KCl), were added in 50 μL respectively and incubated at 4° C. overnight. After washed three times with buffer solution B containing 0.05% Tween 20, the plates were allowed to develop color by adding 100 μL of color reagent, TMB (Moss). The color reaction was stopped by 25 μL of 1 mol/L sulfuric acid and the absorbance was determined at 450 nm with a microplate reader (Molecular Device, VersaMax).
The values of human 11β-HSD1, human 11β-HSD2, and mouse 11β-HSD1 activities were subtracted from 100, and the resultant values were regarded as the respective 11β-HSD inhibition rates of example compounds. […] The comparison of human 11β-HSD1 and human 11β-HSD2 inhibiting activities is shown in Table 1, and the comparison of human 11β-HSD1 and mouse 11β-HSD1 inhibiting activities is shown in Table 2.

mouse 11β-HSD1 = biological target: T3, mouse 11β-HSD1 (Mus musculus, UniProt P50172); experiment: Enzyme inhibitory activity, mouse 11β-HSD1 (lysate of stably expressing CHO-K1 cells, cortisol by competitive ELISA); conditions: Table 2; mouse 11β-HSD1, cell lysate, 37° C. for 1 hour; read-out: m HSD1 in vitro assay (IC50 uM)
T3 construct: The obtained PCR products of about 0.9 kbp, 1.2 kbp, and 0.9 kbp were subcloned into an expression vector pcDNA3.1+/Zeo; expressed in transfected cells
T3 sequence (P50172 whole entry): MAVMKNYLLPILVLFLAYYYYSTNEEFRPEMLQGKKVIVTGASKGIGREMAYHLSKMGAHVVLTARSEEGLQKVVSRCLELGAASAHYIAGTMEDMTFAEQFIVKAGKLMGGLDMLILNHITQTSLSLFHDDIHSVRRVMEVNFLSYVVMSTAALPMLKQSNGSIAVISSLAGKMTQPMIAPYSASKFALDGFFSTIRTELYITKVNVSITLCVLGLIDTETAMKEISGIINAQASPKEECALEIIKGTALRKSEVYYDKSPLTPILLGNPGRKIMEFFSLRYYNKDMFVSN
In short: as §1

SMILES | IC50 (human 11β-HSD1) [µM] | IC50 (human 11β-HSD2) [µM] | IC50 (mouse 11β-HSD1) [µM]
COCOc1ccccc1N1N(C2C3CC4CC(C3)CC2C4)C(=O)C1(C)C (stereo not drawn) [Example 218, 1-[2-(methoxymethoxy)phenyl]-4,4-dimethyl-2-(adamantan-2-yl)-1,2-diazetidin-3-one] | 0.81 | > 30 | 0.57
CC1(C)C(=O)N([C@H]2C3CC4CC2C[C@](O)(C4)C3)N1c1ccccc1Cl [Example 227, trans-1-(2-chlorophenyl)-2-(5-hydroxyadamantan-2-yl)-4,4-dimethyl-1,2-diazetidin-3-one] | 0.023 | 3 to 30 | 0.95
COc1ccccc1N1N([C@H]2C3CC4CC2C[C@](Cl)(C4)C3)C(=O)C1(C)C [Example 250, trans-2-(5-chloroadamantan-2-yl)-1-(2-methoxyphenyl)-4,4-dimethyl-1,2-diazetidin-3-one] | 0.042 | > 30 | 0.13
CC1(C)C(=O)N([C@H]2C3CC4CC2C[C@](Cl)(C4)C3)N1c1cccc(Cl)c1Cl [Example 251, trans-2-(5-chloroadamantan-2-yl)-1-(2,3-dichlorophenyl)-4,4-dimethyl-1,2-diazetidin-3-one] | 0.03 | 3 to 30 | 0.61
CC1(C)C(=O)N([C@H]2C3CC4CC2C[C@](Cl)(C4)C3)N1c1ccccc1O [Example 253, trans-2-(5-chloroadamantan-2-yl)-1-(2-hydroxyphenyl)-4,4-dimethyl-1,2-diazetidin-3-one] | 0.013 | 3 to 30 | 0.15

The remaining molecules from weak to strong by IC50 (human 11β-HSD1), led by results:

IC50 (human 11β-HSD1) [µM] | IC50 (human 11β-HSD2) [µM] | IC50 (mouse 11β-HSD1) [µM] | SMILES
0.05 | > 30 | 0.9 | CC1(C)C(=O)N([C@H]2C3CC4CC2C[C@@](C(=O)O)(C4)C3)N1c1cccc2ccccc12 [Example 272, cis-4-[2-(naphthalen-1-yl)-3,3-dimethyl-4-oxo-1,2-diazetidin-1-yl]adamantane-1-carboxylic acid]
0.032 | 3 to 30 | 0.089 | CC1(C)C(=O)N(C2C3CC4CC(C3)CC2C4)N1c1cccc2ccccc12 (stereo not drawn) [Example 212, 4,4-dimethyl-1-(naphthalen-1-yl)-2-(adamantan-2-yl)-1,2-diazetidin-3-one]
0.023 | 4.5 | 0.54 | CC1(C)C(=O)N(C2C3CC4CC(C3)CC2C4)N1c1ccc(O)cc1 (stereo not drawn) [Example 215, 4,4-dimethyl-1-(4-hydroxyphenyl)-2-(adamantan-2-yl)-1,2-diazetidin-3-one]
0.023 | 3 to 30 | 0.29 | CC1(C)C(=O)N(C2CCCCCCC2)N1c1cccc(Cl)c1Cl [Example 221, 2-cyclooctyl-1-(2,3-dichlorophenyl)-4,4-dimethyl-1,2-diazetidin-3-one]
0.019 | 5.5 | 0.087 | CC1(C)C(=O)N(C2CCCCCCC2)N1c1cccc2ccccc12 [Example 222, 2-cyclooctyl-4,4-dimethyl-1-(naphthalen-1-yl)-1,2-diazetidin-3-one]
